Assay results from patent US10758534B2 (Vertex Pharmaceuticals Incorporated, priority 2014, dated 2020).

Assays:
F508del [1] = target: T1, F508del (Homo sapiens, UniProt P13569, DEL508-508); assay: Protocol 1: membrane potential optical assay (FLIPR III, voltage sensing dye), identification of potentiator compounds; type: cell-based; details: Table 3, compounds of Table 1
T1 construct: expressed in transfected cells
From the text: Membrane Potential Optical Methods for Assaying F508del Modulation Properties of Compounds
The assay utilizes fluorescent voltage sensing dyes to measure changes in membrane potential using a fluorescent plate reader (e.g., FLIPR III, Molecular Devices, Inc.) as a readout for increase in functional F508del in NIH 3T3 cells. The driving force for the response is the creation of a chloride ion gradient in conjunction with channel activation by a single liquid addition step after the cells have previously been treated with compounds and subsequently loaded with a voltage sensing dye.
Identification of Potentiator Compounds
To identify potentiators of F508del, a double-addition HTS assay format was developed. This HTS assay utilizes fluorescent voltage sensing dyes to measure changes in membrane potential on the FLIPR III as a measurement for increase in gating (conductance) of F508del in temperature-corrected F508del NIH 3T3 cells. The driving force for the response is a Cl^− ion gradient in conjunction with channel activation with forskolin in a single liquid addition step using a fluorescent plate reader such as FLIPR III after the cells have previously been treated with potentiator compounds (or DMSO vehicle control) and subsequently loaded with a redistribution dye.
Bath Solution #1: (in mM) NaCl 160, KCl 4.5, CaCl2 2, MgCl2 1, HEPES 10, pH 7.4 with NaOH.
Chloride-free bath solution: Chloride salts in Bath Solution #1 (above) are substituted with gluconate salts.
NIH3T3 mouse fibroblasts stably expressing F508del are used for optical measurements of membrane potential. The cells are maintained at 37° C. in 5% CO2 and 90% humidity in Dulbecco's modified Eagle's medium supplemented with 2 mM glutamine, 10% fetal bovine serum, 1×NEAA, β-ME, 1× pen/strep, and 25 mM HEPES in 175 cm^2 culture flasks. For all optical assays, the cells were seeded at ˜20,000/well in 384-well matrigel-coated plates and cultured for 2 hrs at 37° C. before culturing at 27° C. for 24 hrs. for the potentiator assay. For the correction assays, the cells are cultured at 27° C. or 37° C. with and without compounds for 16-24 hours.

F508del [2] = target: T1, F508del; assay: Protocol 2: FRET membrane potential optical assay (VIPR), identification of correction compounds; type: cell-based; details: F508del CFTR modulator activity; compounds of Table 1; read-out: EC30
Procedure, shortened: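 Mouse NIH3T3 cells, stable F508del; cpd 16 hrs, 37° C., serum-free; pos ctrl 27° C. 16 hrs. Rinse in Krebs Ringers, dye load, then add 10 μM forskolin + 20 μM genistein with Cl^−-free (gluconate) medium; depolarization by FRET voltage dyes.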

T1 sequence (P13569 with tags, fused parts or gaps DEL508-508): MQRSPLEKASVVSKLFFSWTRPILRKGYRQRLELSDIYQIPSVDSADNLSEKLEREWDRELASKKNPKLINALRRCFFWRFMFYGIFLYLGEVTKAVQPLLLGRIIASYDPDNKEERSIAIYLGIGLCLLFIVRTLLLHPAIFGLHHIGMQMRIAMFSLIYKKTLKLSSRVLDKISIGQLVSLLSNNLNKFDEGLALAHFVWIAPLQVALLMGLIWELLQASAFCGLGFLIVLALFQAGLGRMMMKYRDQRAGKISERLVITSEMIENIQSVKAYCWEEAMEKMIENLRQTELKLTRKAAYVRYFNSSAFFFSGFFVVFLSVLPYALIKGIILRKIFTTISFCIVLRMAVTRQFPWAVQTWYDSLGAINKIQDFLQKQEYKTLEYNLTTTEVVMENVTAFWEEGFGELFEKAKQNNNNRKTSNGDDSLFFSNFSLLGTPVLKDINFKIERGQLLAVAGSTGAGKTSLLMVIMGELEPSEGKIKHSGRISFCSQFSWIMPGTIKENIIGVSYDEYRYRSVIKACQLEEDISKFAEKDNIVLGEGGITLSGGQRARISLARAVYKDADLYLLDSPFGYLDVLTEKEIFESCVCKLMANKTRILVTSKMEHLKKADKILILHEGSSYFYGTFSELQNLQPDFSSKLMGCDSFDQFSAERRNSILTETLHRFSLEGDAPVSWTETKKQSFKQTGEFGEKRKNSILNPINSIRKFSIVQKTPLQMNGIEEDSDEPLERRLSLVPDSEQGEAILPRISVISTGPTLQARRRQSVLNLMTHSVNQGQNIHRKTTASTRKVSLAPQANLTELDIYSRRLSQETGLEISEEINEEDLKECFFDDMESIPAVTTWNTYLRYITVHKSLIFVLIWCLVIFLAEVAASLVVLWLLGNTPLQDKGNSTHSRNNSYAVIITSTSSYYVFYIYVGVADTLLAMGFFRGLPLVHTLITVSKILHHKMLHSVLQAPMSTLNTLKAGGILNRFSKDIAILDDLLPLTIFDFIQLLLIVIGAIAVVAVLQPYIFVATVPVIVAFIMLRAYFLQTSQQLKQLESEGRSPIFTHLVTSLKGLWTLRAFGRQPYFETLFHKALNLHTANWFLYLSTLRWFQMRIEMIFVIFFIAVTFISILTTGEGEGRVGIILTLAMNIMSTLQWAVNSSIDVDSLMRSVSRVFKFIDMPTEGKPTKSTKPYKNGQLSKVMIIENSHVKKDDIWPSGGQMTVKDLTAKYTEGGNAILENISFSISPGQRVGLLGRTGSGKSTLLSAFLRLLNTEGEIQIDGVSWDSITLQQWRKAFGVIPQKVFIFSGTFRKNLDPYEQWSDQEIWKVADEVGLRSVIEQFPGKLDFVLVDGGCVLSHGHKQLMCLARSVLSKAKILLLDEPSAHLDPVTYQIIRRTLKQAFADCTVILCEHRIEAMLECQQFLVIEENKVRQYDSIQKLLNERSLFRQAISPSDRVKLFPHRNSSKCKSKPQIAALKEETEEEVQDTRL

Structure (SMILES) | EC30 (F508del [1]) | EC30 (F508del [2]) [nM]
CCC1(C)CC(C)CN1c1nc(-c2cc(F)cc(OCC(C)C)c2)ccc1C(=O)NS(=O)(=O)c1cccc(N)n1 (single isomer, unassigned) [Compound 1729, N-[(6-amino-2-pyridyl)sulfonyl]-2-(2-ethyl-2,4-dimethyl-pyrrolidin-1-yl)-6-(3-fluoro-5-isobutoxy-phenyl)pyridine-3-carboxamide] | +++ (“+++” means <3 uM) | 
CC[C@]1(C)C[C@H](C)CN1c1nc(-c2cc(F)cc(OCC(C)C)c2)ccc1C(=O)NS(=O)(=O)c1cccc(N)n1 (single isomer, unassigned) [Compound 1817, N-[(6-amino-2-pyridyl)sulfonyl]-2-(2-ethyl-2,4-dimethyl-pyrrolidin-1-yl)-6-(3-fluoro-5-isobutoxy-phenyl)pyridine-3-carboxamide] | +++ (“+++” means <3 uM) | 
CC(C)COc1cc(F)cc(-c2ccc(C(=O)NS(=O)(=O)c3cccc(N)n3)c(N3CC(C)CCC3C)n2)c1 (single isomer, unassigned) [Compound 1855, N-[(6-amino-2-pyridyl)sulfonyl]-2-(2,5-dimethyl-1-piperidyl)-6-(3-fluoro-5-isobutoxy-phenyl)pyridine-3-carboxamide] | +++ (“+++” means <3 uM) | 
CC(C)COc1cc(F)cc(-c2ccc(C(=O)NS(=O)(=O)c3cccc(N)n3)c(N3CCC(C)C(C)C3)n2)c1 (single isomer, unassigned) [Compound 1863, N-[(6-amino-2-pyridyl)sulfonyl]-2-(3,4-dimethyl-1-piperidyl)-6-(3-fluoro-5-isobutoxy-phenyl)pyridine-3-carboxamide] | +++ (“+++” means <3 uM) | 
CC(C)COc1cc(F)cc(-c2ccc(C(=O)NS(=O)(=O)c3cccc(N)n3)c(N3CC(C)CCC3C)n2)c1 (single isomer, unassigned) [Compound 1864, N-[(6-amino-2-pyridyl)sulfonyl]-2-(2,5-dimethyl-1-piperidyl)-6-(3-fluoro-5-isobutoxy-phenyl)pyridine-3-carboxamide] | +++ (“+++” means <3 uM) | 
CC(C)COc1cc(F)cc(-c2ccc(C(=O)NS(=O)(=O)c3cccc(N)n3)c(N3CC(C)CCC3C)n2)c1 (single isomer, unassigned) [Compound 1993, N-[(6-amino-2-pyridyl)sulfonyl]-2-(2,5-dimethyl-1-piperidyl)-6-(3-fluoro-5-isobutoxy-phenyl)pyridine-3-carboxamide] | +++ (“+++” means <3 uM) | 
CC(C)CC(C)Nc1ccc(-c2ccc(C(=O)NS(=O)(=O)c3cccc(N)n3)c(N3[C@H](C)CC[C@@H]3C)n2)cn1 (stereo in doubt) [Compound 1463, N-[(6-amino-2-pyridyl)sulfonyl]-6-[6-[[(1 S)-1,3-dimethylbutyl]amino]-3-pyridyl]-2-[(2S,5R)-2,5-dimethylpyrrolidin-1-yl]pyridine-3-carboxamide] | +++ (“+++” means <3 uM) | 
CCN(CC)c1ccc(-c2ccc(C(=O)NS(=O)(=O)c3cccc(N)n3)c(N3CC(C)CC3(C)C)n2)cn1 (stereo not shown) [Compound 796, N-[(6-amino-2-pyridyl)sulfonyl]-6-[6-(diethylamino)-3-pyridyl]-2-(2,2,4-trimethylpyrrolidin-1-yl)pyridine-3-carboxamide] | +++ (“+++” means <3 uM) | 
CC(C)(C)c1cc(C(=O)NS(=O)(=O)c2cccc(N)c2)n(Cc2ccc(Cl)cc2Cl)n1 [Compound 797, N-(3-aminophenyl)sulfonyl-5-tert-butyl-2-[(2,4-dichlorophenyl)methyl]pyrazole-3-carboxamide] | + (“+” means greater than 10 uM) | 
COc1ncccc1S(=O)(=O)NC(=O)c1ccc(-c2cc(F)cc(OC(C)C)c2)nc1-c1ccc(C)cc1 [Compound 798, 6-(3-fluoro-5-isopropoxy-phenyl)-N-[(2-methoxy-3-pyridyl)sulfonyl]-2-(p-tolyl)pyridine-3-carboxamide] | +++ (“+++” means <3 uM) | 
CC(c1ccccc1)n1nc(C(C)(C)C)cc1C(=O)NS(=O)(=O)c1cccc(N)c1 (stereo not shown) [Compound 799, N-(3-aminophenyl)sulfonyl-5-ter-butyl-2-(1-phenylethyl)pyrazole-3-carboxamide] | + (“+” means greater than 10 uM) | 
CC1CCN(c2nc3c(cc2C(=O)NS(=O)(=O)c2ccn[nH]2)CCCC3(C)C)CC1 [Compound 800, 8,8-dimethyl-2-(4-methyl-1-piperidyl)-N-(1H-pyrazol-5-ylsulfonyl)-6,7-dihydro-5H-quinoline-3-carboxamide] | ++ (“++” means between 3 uM and 10 uM) | 
Cc1cc(C)c(Oc2nc(-c3cccc(CN)c3)ccc2C(=O)NS(=O)(=O)c2cccc(N)n2)c(C)c1 [Compound 801, 6-[3-(aminomethyl)phenyl]-N-[(6-amino-2-pyridyl)sulfonyl]-2-(2,4,6-trimethylphenoxy)pyridine-3-carboxamide] | + (“+” means greater than 10 uM) | 
Cc1ccc(-c2ccc(C(=O)NS(=O)(=O)c3cccc(N)n3)c(N3CCC(C)CC3)n2)cc1 [Compound 802, N-[(6-amino-2-pyridyl)sulfonyl]-2-(4-methyl-1-piperidyl)-6-(p-tolyl)pyridine-3-carboxamide] | +++ (“+++” means <3 uM) | 
Cc1cc(C)c(Oc2nc(-c3cc(F)ccc3F)ccc2C(=O)NS(=O)(=O)c2cccc(N)n2)c(C)c1 [Compound 803, N-[(6-amino-2-pyridyl)sulfonyl]-6-(2,5-difluorophenyl)-2-(2,4,6-trimethylphenoxy)pyridine-3-carboxamide] | +++ (“+++” means <3 uM) | 
Cc1cc(C)c(Oc2nc(-c3cccc(OCC(C)C)c3F)ccc2C(=O)NS(=O)(=O)c2ccc[nH]c2=O)c(C)c1 [Compound 804, 6-(2-fluoro-3-isobutoxy-phenyl)-N-[(2-oxo-1H-pyridin-3-yl)sulfonyl]-2-(2,4,6-trimethylphenoxy)pyridine-3-carboxamide] | +++ (“+++” means <3 uM) | 

Structure (SMILES) | EC30 (F508del [1]) | EC30 (F508del [2]) [nM]
C[C@@H]1CC[C@H](C)N1c1nc(-c2ccccc2)ccc1C(=O)NS(=O)(=O)c1cccc(N)n1 [Compound 805, N-[(6-amino-2-pyridyl)sulfonyl]-2-[(2S,5R)-2,5-dimethylpyrrolidin-1-yl]-6-phenyl-pyridine-3-carboxamide] | +++ (“+++” means <3 uM) | 
COc1ccc(C(=O)NS(=O)(=O)c2cccc(N)n2)c(Oc2c(C)cc(C)cc2C)n1 [Compound 806, N-[(6-amino-2-pyridyl)sulfonyl]-6-methoxy-2-(2,4,6-trimethylphenoxy)pyridine-3-carboxamide] | ++ (“++” means between 3 uM and 10 uM) | 
CC1CN(c2ncccc2C(=O)NS(=O)(=O)c2cccc(NCCc3ccncc3)n2)C(C)(C)C1 (stereo not shown) [Compound 2735] |  | 3000 to 10000
CC1CN(c2ncccc2C(=O)NS(=O)(=O)c2cccc(Oc3ccc(Cl)cn3)n2)C(C)(C)C1 (stereo not shown) [Compound 2736] |  | 3000 to 10000
CC1CN(c2ncccc2C(=O)NS(=O)(=O)c2cccc(OC3CCOc4ccccc43)n2)C(C)(C)C1 (stereo not shown) [Compound 2737] |  | < 3000
CC1CN(c2ncccc2C(=O)NS(=O)(=O)c2cccc(Oc3ccccc3N3CCCCC3)n2)C(C)(C)C1 (stereo not shown) [Compound 2738] |  | < 3000
CC1CN(c2ncccc2C(=O)NS(=O)(=O)c2cccc(Oc3ccc(OC(C)(C)C)cc3)n2)C(C)(C)C1 (stereo not shown) [Compound 2739] |  | < 3000
CC1CN(c2ncccc2C(=O)NS(=O)(=O)c2cccc(OCCc3cccc(F)c3)n2)C(C)(C)C1 (stereo not shown) [Compound 2740] |  | < 3000
CC#CCOc1cccc(S(=O)(=O)NC(=O)c2cccnc2N2CC(C)CC2(C)C)n1 (stereo not shown) [Compound 2741] |  | 3000 to 10000
CC1CN(c2ncccc2C(=O)NS(=O)(=O)c2cccc(OCCN)n2)C(C)(C)C1 (stereo not shown) [Compound 2742] |  | 3000 to 10000
CC1CN(c2ncccc2C(=O)NS(=O)(=O)c2cccc(Nc3ccc(NC(=O)OC(C)(C)C)cc3)n2)C(C)(C)C1 (stereo not shown) [Compound 2743] |  | < 3000
CC1CN(c2ncccc2C(=O)NS(=O)(=O)c2cccc(N(C)Cc3ccccc3Cl)n2)C(C)(C)C1 (stereo not shown) [Compound 2744] |  | < 3000
CC1CN(c2ncccc2C(=O)NS(=O)(=O)c2cccc(N[C@H](C)C(C)(C)C)n2)C(C)(C)C1 (stereo partly shown) [Compound 2745] |  | < 3000
CC(C)CN(C)c1cccc(S(=O)(=O)NC(=O)c2cccnc2N2CC(C)CC2(C)C)n1 (stereo not shown) [Compound 2746] |  | < 3000
CC1CN(c2ncccc2C(=O)NS(=O)(=O)c2cccc(N3CCCCC3C)n2)C(C)(C)C1 (stereo not shown) [Compound 2747] |  | < 3000
